Results published in US8895761B2, “4-phenylpyrane-3,5-diones, 4-phenylthiopyrane-3,5-diones and 2-phenylcyclohexane-1,3,5-triones as herbicides” (Syngenta Limited, priority 2007, dated 2014).

Experiments:
Type in all cases: in vivo
[1] = test system: Alopecurus myosuroides (ALOMY); test: Pre-emergence herbicidal glasshouse test, Alopecurus myosuroides; settings: Alopecurus myosuroides, 312 h, rate 250 g/ha, evaluated after 13 days, scale 100 = total damage to plant, 0 = no damage
How it was run: (§1)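 Pots, standard soil; spray at day 1 (pre-em) or day 8 (post-em). Formulation: acetone/water 50:50 + 0.5% Tween 20, diluted into aqueous spray. Glasshouse 24/16° C., 14 h light, 65% RH, watering twice daily. Scored at 13 days: 0 = no damage up to total plant damage.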

Avena fatua (AVEFA) [2] = test: Pre-emergence herbicidal glasshouse test, Avena fatua; settings: Avena fatua, 312 h, rate 250 g/ha, evaluated after 13 days, scale 100 = total damage to plant, 0 = no damage
How it was run: as §1

[3] = test system: Echinochloa crus-galli (ECHCG); test: Post-emergence herbicidal glasshouse test, Echinochloa crus-galli; settings: Echinochloa crus-galli, 312 h, rate 250 g/ha, evaluated after 13 days, scale 100 = total damage to plant, 0 = no damage
How it was run: as §1

[4] = test system: Alopecurus myosuroides (ALOMY); test: Post-emergence herbicidal glasshouse test, Alopecurus myosuroides; settings: Alopecurus myosuroides, 312 h, rate 250 g/ha, evaluated after 13 days, scale 100 = total damage to plant, 0 = no damage
How it was run: as §1

[5] = test system: Echinochloa crus-galli (ECHCG); test: Pre-emergence herbicidal glasshouse test, Echinochloa crus-galli; settings: Echinochloa crus-galli, 312 h, rate 250 g/ha, evaluated after 13 days, scale 100 = total damage to plant, 0 = no damage
How it was run: as §1

Avena fatua (AVEFA) [6] = test: Post-emergence herbicidal glasshouse test, Avena fatua; settings: Avena fatua, 312 h, rate 250 g/ha, evaluated after 13 days, scale 100 = total damage to plant, 0 = no damage
How it was run: as §1

Setaria faberi (SETFA) [7] = test: Pre-emergence herbicidal glasshouse test, Setaria faberi; settings: Setaria faberi, 312 h, rate 250 g/ha, evaluated after 13 days, scale 100 = total damage to plant, 0 = no damage
Protocol: (§2) Seeds of a variety of test species were sown in standard soil in pots. After cultivation for one day (pre-emergence) or after 8 days cultivation (post-emergence) under controlled conditions in a glasshouse (at 24/16° C., day/night; 14 hours light; 65% humidity), the plants were sprayed with an aqueous spray solution derived from the formulation of the technical active ingredient in acetone/water (50:50) solution containing 0.5% Tween 20 (polyoxyethelyene sorbitan monolaurate, CAS RN 9005-64-5). The test plants were then grown in a glasshouse under controlled conditions in a glasshouse (at 24/16° C., day/night; 14 hours light; 65% humidity) and watered twice daily. After 13 days for pre and post-emergence, the test was evaluated ([…] to plant; 0=no damage to plant).
(§3) Setaria faberi (SETFA), Lolium perenne (LOLPE), Alopecurus myosuroides (ALOMY), Echinochloa crus-galli (ECHCG) and Avena fatua (AVEFA).

Setaria faberi (SETFA) [8] = test: Post-emergence herbicidal glasshouse test, Setaria faberi; settings: Setaria faberi, 312 h, rate 250 g/ha, evaluated after 13 days, scale 100 = total damage to plant, 0 = no damage
Protocol: as §2, §3

Row | Compound | pest or weed control at 250 g/ha [1] [%] | pest or weed control at 250 g/ha (Avena fatua (AVEFA) [2]) [%] | pest or weed control at 250 g/ha [3] [%] | pest or weed control at 250 g/ha [4] [%] | pest or weed control at 250 g/ha [5] [%] | pest or weed control at 250 g/ha (Avena fatua (AVEFA) [6]) [%] | pest or weed control at 250 g/ha (Setaria faberi (SETFA) [7]) [%] | pest or weed control at 250 g/ha (Setaria faberi (SETFA) [8]) [%]
1 | CCc1cc(-c2cc(Cl)cc(Cl)c2)ccc1C1=C(O)[C@@]2(C)CC[C@H](O2)C1=O [Compound A-15] | 0 | 40 | 100 | 100 | 30 | 80 | 40 | 100
2 | CCc1cc(-c2ccc(Cl)cc2C)ccc1C1=C(O)[C@@]2(C)CC[C@H](O2)C1=O [Compound A-16] | 0 | 0 | 20 | 90 | 0 | 0 | 50 | 80
3 | CCc1cc(-c2ccc(Cl)c(Cl)c2)ccc1C1=C(O)[C@@]2(C)CC[C@H](O2)C1=O [Compound A-17] | 30 | 80 | 100 | 100 | 100 | 100 | 100 | 100
4 | CCc1cc(-c2ccc(F)cc2)ccc1C1=C(O)[C@@]2(C)CC[C@H](O2)C1=O [Compound A-18] | 90 | 70 | 100 | 100 | 100 | 90 | 100 | 100
5 | CCc1cc(-c2ccc(Cl)c(C)c2)ccc1C1=C(O)[C@@]2(C)CC[C@H](O2)C1=O [Compound A-19] | 0 | 30 | 90 | 90 | 80 | 60 | 0 | 80
6 | CCc1cc(-c2ccc(Cl)c(OC)c2)ccc1C1=C(O)[C@@]2(C)CC[C@H](O2)C1=O [Compound A-20] | 70 | 40 | 100 | 90 | 70 | 70 | 80 | 90
7 | CCc1cc(-c2ccc(Cl)c(C(F)(F)F)c2)ccc1C1=C(O)[C@@]2(C)CC[C@H](O2)C1=O [Compound A-22] | 0 | 50 | 90 | 100 | 40 | 70 | 50 | 100
8 | CCc1cc(-c2ccc(Cl)s2)ccc1C1=C(O)[C@@]2(C)CC[C@H](O2)C1=O [Compound A-23] | 60 | 40 | 100 | 90 | 50 | 30 | 60 | 80
9 | CCc1cc(-c2ccc(Cl)nc2)ccc1C1=C(O)[C@@]2(C)CC[C@H](O2)C1=O [Compound A-25] | 30 | 20 | 100 | 90 | 50 | 60 | 90 | 100
10 | CCOC[C@]12CC[C@H](O1)C(=O)C(c1ccc(-c3ccc(Cl)cc3)cc1CC)=C2O [Compound A-33] | 20 | 40 | 100 | 90 | 60 | 80 | 30 | 100
